Measurements reported in patent publication US10246486B2, “Macrocyclic inhibitors of flaviviridae viruses” (Gilead Sciences, Inc., priority 2012, dated 2019).

Columns and labels:
cyclophilin A = cyclophilin A (Homo sapiens, UniProt P62937); experiment: biochemical
[1] = test system: HCV replicon 1a (human hepatoma Huh-7 cell line harboring a HCV replicon); experiment: microbe, parasite or virus in culture; assay type: cell-based

cyclophilin A, sequence (P62937 whole entry, species assumed): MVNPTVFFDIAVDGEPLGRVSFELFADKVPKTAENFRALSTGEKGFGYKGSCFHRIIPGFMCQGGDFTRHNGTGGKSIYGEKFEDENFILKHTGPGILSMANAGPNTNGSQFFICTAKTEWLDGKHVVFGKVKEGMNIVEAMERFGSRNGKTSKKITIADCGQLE

Row | IC50 (cyclophilin A) [nM] | SMILES | Replicon 1a % inhibition at 1 μm [1] [%]
1 | 1000 to 10000 | CC(C)[C@@H]1NC(=O)/C=C\c2cc3cc(ccc3cn2)[C@@H](C)NC(=O)[C@@H]2CCCN(N2)C(=O)[C@H](C)NC1=O [Example 12] | –
2 | < 100 | CC(C)[C@@H]1NC(=O)[C@@H]([C@H](C)O)/C=C/c2ccc3ccc(nc3c2)[C@@H](C)OC(=O)[C@@H]2CCCN(N2)C(=O)[C@H](C)NC1=O [Example 31] | –
3 | – | CC(C)[C@@H]1NC(=O)[C@H](C)/C=C/c2ccc3ccc(nc3c2)[C@@H](C)OC(=O)[C@@H]2CCCN(N2)C(=O)[C@H](C)NC1=O [Example 26] | 99
